Measurements from US20030211078A1, “Pseudo-antibody constructs” (priority 2001, published 2003).

Legend:
[1] = tested on: platelet aggregation (GPIIb/IIIa receptors on platelets); experiment: inhibition of platelet aggregation, in vitro activity (FIG. 1, FIG. 2); type: cell-based; conditions: for binding activity / in vitro activity (inhibition of platelet aggregation) compared with unmodified antibody fragment ReoPro: FIG. 2; for in vitro activity (inhibition of platelet aggregation) compared with unmodified antibody fragment ReoPro: versus ReoPro; for in vitro activity (inhibition of platelet aggregation) compared with unmodified 7E3 Fab′: FIG. 1, versus unmodified Fab
Source text: FIG. 1 depicts a comparison of the inhibition of platelet aggregation by two pseudo-antibodies (7E3 Fab′ (PEG3.4K-DSPE)2 and 7E3 Fab′ (PEG3.4K-PAL)2) and one unmodified antibody fragment (7E3 Fab).
FIG. 2 depicts a comparison of the inhibition of platelet aggregation by two pseudo-antibodies (7E3 Fab′ (PEG5K)2 and 7E3 Fab′ (PEG10K)2) and one unmodified antibody fragment (ReoPro®).
The organic moieties portions of these constructs may also be dimerized, such that n=2. For example, the antibody fragment 7E3 Fab′ was used to construct the pseudo-antibody 7E3 Fab′ (PEG3.4k-DSPE)2 and the pseudo-antibody 7E3 Fab′ (PEG3.4.k-PAL)2 and the in vitro activities were compared with unmodified 7E3 Fab′.
Additionally, 7E3 Fab′ was used to construct the pseudo-antibodies 7E3 Fab′ (PEG5k)2 and 7E3 Fab′ (PEG10k)2 and the in vitro activites were compared with the unmodified antibody fragment ReoPro®.

[2] = tested on: adjuvant arthritic rat; conditions: bone mineral density, MRI, micro-CT, histology; cited from earlier work
[3] = cited from earlier work
[4] = molecular target: MMP 3 (Homo sapiens, UniProt P08254); conditions: cited from earlier work
Chain of MMP 3 (P08254 100-477): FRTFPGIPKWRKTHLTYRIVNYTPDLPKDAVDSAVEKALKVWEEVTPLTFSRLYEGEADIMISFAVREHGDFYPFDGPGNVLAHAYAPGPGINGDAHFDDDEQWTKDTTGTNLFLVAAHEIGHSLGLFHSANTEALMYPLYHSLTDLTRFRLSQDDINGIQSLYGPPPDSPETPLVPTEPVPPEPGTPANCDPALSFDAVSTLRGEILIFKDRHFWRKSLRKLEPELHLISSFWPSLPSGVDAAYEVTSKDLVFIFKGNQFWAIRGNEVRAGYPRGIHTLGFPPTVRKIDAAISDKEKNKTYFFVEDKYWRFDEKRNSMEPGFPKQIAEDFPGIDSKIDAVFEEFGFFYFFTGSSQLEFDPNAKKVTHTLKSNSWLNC

[5] = molecular target: T1, MMP 2 (Homo sapiens, UniProt P08253); conditions: cited from earlier work
T1 sequence (P08253 110-660): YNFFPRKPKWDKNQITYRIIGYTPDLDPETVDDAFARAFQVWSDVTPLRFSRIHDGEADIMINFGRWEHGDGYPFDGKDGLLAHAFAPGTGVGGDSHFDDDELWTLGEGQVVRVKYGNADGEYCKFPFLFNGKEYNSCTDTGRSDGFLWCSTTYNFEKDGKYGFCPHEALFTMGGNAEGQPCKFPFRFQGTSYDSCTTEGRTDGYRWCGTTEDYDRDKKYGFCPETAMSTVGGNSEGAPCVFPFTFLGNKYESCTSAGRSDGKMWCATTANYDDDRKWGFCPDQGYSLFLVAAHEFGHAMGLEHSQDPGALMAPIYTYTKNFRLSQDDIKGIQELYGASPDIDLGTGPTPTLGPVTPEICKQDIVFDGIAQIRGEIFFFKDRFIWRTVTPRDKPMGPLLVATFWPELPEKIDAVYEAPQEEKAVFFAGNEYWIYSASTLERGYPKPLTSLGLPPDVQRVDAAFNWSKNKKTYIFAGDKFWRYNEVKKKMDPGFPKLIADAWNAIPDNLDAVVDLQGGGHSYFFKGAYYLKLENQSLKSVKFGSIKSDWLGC

[6] = molecular target: MMP 9 (Homo sapiens, UniProt P14780); conditions: cited from earlier work
Chain of MMP 9 (P14780 94-707): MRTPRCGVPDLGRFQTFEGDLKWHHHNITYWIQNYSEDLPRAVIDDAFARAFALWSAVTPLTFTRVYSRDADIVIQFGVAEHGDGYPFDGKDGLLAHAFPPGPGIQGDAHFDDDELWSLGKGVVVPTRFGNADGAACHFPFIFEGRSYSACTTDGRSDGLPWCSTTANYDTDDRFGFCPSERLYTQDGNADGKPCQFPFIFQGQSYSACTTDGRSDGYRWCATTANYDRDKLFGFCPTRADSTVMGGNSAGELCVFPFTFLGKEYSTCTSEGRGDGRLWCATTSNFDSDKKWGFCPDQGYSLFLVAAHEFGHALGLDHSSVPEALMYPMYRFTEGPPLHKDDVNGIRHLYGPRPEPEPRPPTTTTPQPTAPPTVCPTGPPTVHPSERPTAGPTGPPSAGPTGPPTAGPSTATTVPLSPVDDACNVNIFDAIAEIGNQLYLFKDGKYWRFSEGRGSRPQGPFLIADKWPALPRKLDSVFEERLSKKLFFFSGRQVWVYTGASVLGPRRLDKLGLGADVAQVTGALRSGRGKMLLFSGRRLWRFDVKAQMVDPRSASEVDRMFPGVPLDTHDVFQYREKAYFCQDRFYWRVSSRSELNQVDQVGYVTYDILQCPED

[7] = in vivo pharmacokinetic analysis, circulating half-life / clearance in mice (FIG. 3); conditions: equimolar doses
Experimental: FIG. 3 depicts a comparison of in vivo circulating half-life, in mice, of two pseudo-antibodies, 7E3 Fab′ (PEG3.4K-DSPE)2 and 7E3 Fab′ (PEG5K)2.
For in vivo pharmacokinetic analysis, c7E3 Fab′ (PEG3.4k-DSPE)2 and c7E3 Fab′ (PEG5k) were prepared, and given to mice in equimolar doses. The results are depicted in FIG. 3.

Molecule: 7E3 Fab′ (PEG5k)2: pseudo-antibody: 7E3 Fab′ fragment with two PEG5k chains
- binding activity [1]: binding activity was clearly retained
- in vitro activity (inhibition of platelet aggregation) compared with unmodified antibody fragment ReoPro [1]: somewhat lower in vitro activity than the unmodified antibody fragment

Molecule: COc1nccc(-c2c(-c3ccc(F)cc3)ncn2C2CCNCC2)n1 [SB 242235]
- activity in the adjuvant arthritic rat [2]: inhibits inflammation and has significant joint-protective effects

Molecule: CCCCS(=O)(=O)N[C@@H](Cc1ccc(OCCCCC2CCNCC2)cc1)C(=O)O [Tirofiban]
- in vivo circulatory half-life [3]: approximately two

Molecule: 7E3 Fab′ (PEG10k)2: pseudo-antibody: 7E3 Fab′ fragment with two PEG10k chains
- binding activity [1]: binding activity was clearly retained
- in vitro activity (inhibition of platelet aggregation) compared with unmodified antibody fragment ReoPro [1]: somewhat lower in vitro activity than the unmodified antibody fragment

Molecule: O=C(C[C@H](CSc1ccccc1)C(=O)O)c1ccc(-c2ccc(Cl)cc2)cc1 [BAY12-9566]
- inhibitory activity against MMP 3 [4]: nM inhibitory activity
- inhibitory activity against MMP 2 [5]: nM inhibitory activity
- inhibitory activity against MMP 9 [6]: nM inhibitory activity

Molecule: c7E3 Fab′ (PEG5k): pseudo-antibody of c7E3 Fab′ with PEG5k, given to mice; probably the same as 7E3 Fab′ (PEG5K)2 of FIG. 3
- rate of clearance [7]: cleared faster

Molecule: 7E3 Fab′ (PEG3.4k-DSPE)2: pseudo-antibody: 7E3 Fab′ fragment with two PEG3.4k chains each ending in diesteroylphosphatidyl-ethanolamine (DSPE)
- rate of clearance [7]: slower rate of clearance
- in vitro activity (inhibition of platelet aggregation) compared with unmodified 7E3 Fab′ [1]: similar

B1: 7E3 Fab′ (PEG3.4.k-PAL)2: pseudo-antibody: 7E3 Fab′ fragment with two PEG3.4k chains each ending in palmatoyl (PAL) (conjugate, chains of the INN, looked up)
VH: EVQLQQSGTVLARPGASVKMSCEASGYTFTNYWMHWVKQRPGQGLEWIGAIYPGNSDTSYIQKFKGKAKLTAVTSTTSVYMELSSLTNEDSAVYYCTLYDGYYVFAYWGQGTLVTVSA
VL: EIVLTQSPVTLSVTPGDSVSLSCRASRDISNNLHWFQQTSHESPRLLIKYASQSMSGIPSRFSGSGSGTDFTLSINSVETEDFGMYFCQQTNSWPYTFGGGTKLEIK
modifications: Fab' two PEG3.4k-palmitoyl chains
- in vitro activity (inhibition of platelet aggregation) compared with unmodified 7E3 Fab′ [1]: similar
